Source: patent publication US5352659A, “Endothelin analogs and uses thereof” (Takeda Chemical Industries, priority 1991, dated 1994)
Like-named read-outs stand apart in the source and are kept apart here. Bridge positions count the residues as written; N and C are the ends. Square brackets hold non-standard residues; d marks the D form. Peptide text beside a SMILES is read from it. Cha = N[C@@H](CC1CCCCC1)C(=O)O; Nle = CCCC[C@H](N)C(=O)O

Key:
endothelin receptor = assay: Assay of affinity for receptor (inhibition of 125I-ET-1 binding to porcine myocardial membrane fraction); conditions: for Receptor binding activity (specific activity): relative to ET-1 = 100
Experimental: Assay of Affinity for Receptor
A membrane fraction prepared from the porcine heart was diluted to 0.15 mg/ml by using a buffer solution for assay, and 100 μl of the resulting suspension of the membrane fraction was poured into each assay tube to use for assay. To this suspension of the membrane fraction was added 2 μl of 5 nM ^125 I labeled endothelin-1 solution. Further, 3 μl of a test peptide solution was added thereto, followed by incubation at a temperature of 25° C. for 1 hour. Then, the resulting suspension was diluted with 900 μl of the buffer solution for assay cooled with ice, and thereafter separated into a supernatant and a precipitate by centrifugation at 12,000×g for 10 minutes. Cell membranes and an endothelin receptor embedded therein were contained in the precipitate, and radioactive iodine-labeled endothelin combined with the receptor was also recovered in the precipitate. Accordingly, the amount of radioactive iodine-labeled endothelin combined with the endothelin receptor was determined by measuring the amount of radioactive iodine contained in the precipitate with a gamma-ray counter.

porcine coronary artery = assay: Constrictor activity on porcine coronary smooth muscles; conditions: for Maximum constriction (% 60 mM KCl): porcine coronary artery strips, normalized to 60 mM KCl response; for Constrictor activity (specific activity): relative to ET-1 = 100
Experimental: (§1) Spiral strips 2 mm×15 mm prepared from the coronary right ramus circumflexus from which the adventitial connective tissues and the endothelial cells were removed were set to 4 ml organ baths. The tension of each strip was detected by a force displacement transducer UL-10GR (Minebea), and recorded by a polygraph (NEC Sanei). The organ baths were maintained at 37° C., and filled with a Krebs-Henseleit solution (composition: 118 mM NaCl, 4.7 mM KCl, 2.5 mM CaCl2, 1.2 mM KH2 PO4, 25.0 mM NaHCO3, 1.2 mM MgSO4, 10.0 mM glucose) gassed with 95% O2 and 5% CO2.
(§2) A tension of 1.25 to 1.5 g was applied to each of the strips, followed by equilibration for 1.5 hours. 60 mM KCl was repeatedly applied thereto at intervals of 30 minutes until the constriction response became constant. After additional equilibration for 1.5 hours, a sample for assay was given thereto. The constriction of the strips was normalized by the constriction response of the individual strips to 60 mM KCl and statistically processed.
(2) As to the antagonistic property of the peptides of the present invention to endothelin, the affinity for an endothelin receptor and the constrictor activity on porcine coronary smooth muscles (according to the method described in (1) described above) were assayed. The affinity for the receptor was assayed by the following method.

[1] = test system: porcine coronary smooth muscles
Experimental: (1) Assay of Constrictor Suppressing Activity on Porcine Coronary Smooth Muscles
as §1, §2
pA2 is a negative logarithm value of a molar concentration of a competitive antagonist necessary for shifting in parallel a dose response curve for an active drug (for example, ET-1) alone to the high dose side by a factor of 2.

[2] = against cumulative endothelin-1, porcine coronary smooth muscles

Receptor binding activity (specific activity) (endothelin receptor)	SMILES	IC50 (endothelin receptor; read-out: IC50, concentration required to prevent 50% of the binding of I125-ET1 to the porcine myocardial membrane fraction)	Maximum constriction (% 60 mM KCl) (porcine coronary artery)	EC50 (porcine coronary artery; porcine coronary artery, read-out: EC50 (% KCl), concentration which induces 50% of the constriction of the porcine coronary artery due to 60 mM KCl)	Constrictor activity (specific activity) (porcine coronary artery; porcine coronary artery)	pA2 [1, 2]	Relative potency [1]	pA2 [1]
12	CC[C@H](C)[C@H](NC(=O)[C@H](CC(C)C)NC(=O)[C@H](CC(N)=O)NC(=O)[C@H](CC(C)C)NC(=O)[C@H](Cc1c[nH]cn1)NC(=O)[C@@H]1CSSC[C@H](N)C(=O)N[C@@H](CO)C(=O)N[C@H]2CSSC[C@H](NC(=O)[C@H](CCC(=O)O)NC(=O)[C@H](CCCCN)NC(=O)[C@H](CC(=O)O)NC(=O)[C@H](CCSC)NC(=O)[C@H](CC(C)C)NC(=O)[C@H](CO)NC(=O)[C@H](CO)NC2=O)C(=O)N[C@@H](C(C)C)C(=O)N[C@@H](Cc2ccc(O)cc2)C(=O)N[C@@H](Cc2ccccc2)C(=O)N1)C(=O)N[C@@H](Cc1c[nH]c2ccccc12)C(=O)O [Example 7, [Asn^18, Leu^19]-ET-1] (H-CSCSSLMDKECVYFCHLNLIW-OH; disulfide 1-15, 3-11)	–	4 % 60 mM KCl	–	< 0.1	–	–	–
4.0	CC[C@H](C)[C@H](NC(=O)[C@H](CC(C)C)NC(=O)[C@@H](NC(=O)[C@H](CC(C)C)NC(=O)[C@H](Cc1c[nH]cn1)NC(=O)[C@@H]1CSSC[C@H](N)C(=O)N[C@@H]([C@@H](C)O)C(=O)N[C@H]2CSSC[C@H](NC(=O)[C@H](CCC(=O)O)NC(=O)[C@H](CCCCN)NC(=O)[C@H](CC(=O)O)NC(=O)[C@H](CCCCN)NC(=O)[C@H](Cc3ccc(O)cc3)NC(=O)[C@H]([C@@H](C)O)NC(=O)[C@H](Cc3ccccc3)NC2=O)C(=O)N[C@@H](C(C)C)C(=O)N[C@@H](Cc2ccc(O)cc2)C(=O)N[C@@H](Cc2ccc(O)cc2)C(=O)N1)[C@@H](C)O)C(=O)N[C@@H](Cc1c[nH]c2ccccc12)C(=O)O [Example 9, [Thr^18, Leu^19]-ET-3] (H-CTCFTYKDKECVYYCHLTLIW-OH; disulfide 1-15, 3-11)	–	12 % 60 mM KCl	–	< 0.1	–	–	–
27	CCCC[C@@H]1NC(=O)[C@H](CC(C)C)NC(=O)[C@H](CO)NC(=O)[C@H](CO)NC(=O)[C@@H]2CSSC[C@H](NC(=O)[C@H](CCC(=O)O)NC(=O)[C@H](CCCCN)NC(=O)[C@H](CC(=O)O)NC1=O)C(=O)N[C@@H](C(C)C)C(=O)N[C@@H](Cc1ccc(O)cc1)C(=O)N[C@@H](Cc1ccccc1)C(=O)N[C@H](C(=O)N[C@@H](Cc1c[nH]cn1)C(=O)N[C@@H](CC(C)C)C(=O)N[C@H](C(=O)N[C@@H](CC(C)C)C(=O)N[C@H](C(=O)N[C@@H](Cc1c[nH]c3ccccc13)C(=O)O)[C@@H](C)CC)[C@@H](C)O)CSSC[C@H](N)C(=O)N[C@@H](CO)C(=O)N2 [Example 17, [Nle^7, Thr^18, Leu^19]-ET-1] (H-CSCSSL[Nle]DKECVYFCHLTLIW-OH; disulfide 1-15, 3-11)	–	9 % 60 mM KCl	–	< 0.1	–	–	–

More lines, now with the values behind:

SMILES	Receptor binding activity (specific activity) (endothelin receptor)	IC50 (endothelin receptor; read-out: IC50, concentration required to prevent 50% of the binding of I125-ET1 to the porcine myocardial membrane fraction)	Maximum constriction (% 60 mM KCl) (porcine coronary artery)	EC50 (porcine coronary artery; porcine coronary artery, read-out: EC50 (% KCl), concentration which induces 50% of the constriction of the porcine coronary artery due to 60 mM KCl)	Constrictor activity (specific activity) (porcine coronary artery; porcine coronary artery)	pA2 [1, 2]	Relative potency [1]	pA2 [1]
CC[C@H](C)[C@H](NC(=O)[C@H](CC(=O)O)NC(=O)[C@H](CC(C)C)NC(=O)[C@H](Cc1c[nH]cn1)NC(=O)[C@@H]1CSSC[C@H](N)C(=O)N[C@@H](CO)C(=O)N[C@H]2CSSC[C@H](NC(=O)[C@H](CCC(=O)O)NC(=O)[C@H](CCCCN)NC(=O)[C@H](CC(=O)O)NC(=O)[C@H](CCSC)NC(=O)[C@H](CC(C)C)NC(=O)[C@H](CO)NC(=O)[C@H](CO)NC2=O)C(=O)N[C@@H](C(C)C)C(=O)N[C@@H](Cc2ccc(O)cc2)C(=O)N[C@@H](Cc2ccccc2)C(=O)N1)C(=O)N[C@H](C(=O)N[C@@H](Cc1c[nH]c2ccccc12)C(=O)O)[C@@H](C)CC [ET-1, endothelin-1, reference compound]	[…]	[…]	120 % 60 mM KCl	1.6 nM	[…]	–	–	–
CC[C@H](C)[C@H](NC(=O)[C@H](CC(C)C)NC(=O)[C@@H](NC(=O)[C@H](CC(C)C)NC(=O)[C@H](Cc1c[nH]cn1)NC(=O)[C@@H]1CSSC[C@H](N)C(=O)N[C@@H](CO)C(=O)N[C@H]2CSSC[C@H](NC(=O)[C@H](CCC(=O)O)NC(=O)[C@H](CCCCN)NC(=O)[C@H](CC(=O)O)NC(=O)[C@H](CCSC)NC(=O)[C@H](CC(C)C)NC(=O)[C@H](CO)NC(=O)[C@H](CO)NC2=O)C(=O)N[C@@H](C(C)C)C(=O)N[C@@H](Cc2ccc(O)cc2)C(=O)N[C@@H](Cc2ccccc2)C(=O)N1)[C@@H](C)O)C(=O)N[C@@H](Cc1c[nH]c2ccccc12)C(=O)O [Example 1, [Thr^18, Leu^19]-ET-1] (H-CSCSSLMDKECVYFCHLTLIW-OH; disulfide 1-15, 3-11)	40	–	4 % 60 mM KCl	–	< 0.1	7.7	–	–
CC[C@H](C)[C@H](NC(=O)[C@H](CC1CCCCC1)NC(=O)[C@@H](NC(=O)[C@H](CC(C)C)NC(=O)[C@H](Cc1c[nH]cn1)NC(=O)[C@@H]1CSSC[C@H](N)C(=O)N[C@@H](CO)C(=O)N[C@H]2CSSC[C@H](NC(=O)[C@H](CCC(=O)O)NC(=O)[C@H](CCCCN)NC(=O)[C@H](CC(=O)O)NC(=O)[C@H](CCSC)NC(=O)[C@H](CC(C)C)NC(=O)[C@H](CO)NC(=O)[C@H](CO)NC2=O)C(=O)N[C@@H](C(C)C)C(=O)N[C@@H](Cc2ccc(O)cc2)C(=O)N[C@@H](Cc2ccccc2)C(=O)N1)[C@@H](C)O)C(=O)N[C@@H](Cc1c[nH]c2ccccc12)C(=O)O [Example 2, [Thr^18, Cha^19]-ET-1] (H-CSCSSLMDKECVYFCHLT[Cha]IW-OH; disulfide 1-15, 3-11)	23	–	2 % 60 mM KCl	–	< 0.1	7.7	–	–
CC[C@H](C)[C@H](NC(=O)[C@H](Cc1ccccc1)NC(=O)[C@@H](NC(=O)[C@H](CC(C)C)NC(=O)[C@H](Cc1c[nH]cn1)NC(=O)[C@@H]1CSSC[C@H](N)C(=O)N[C@@H](CO)C(=O)N[C@H]2CSSC[C@H](NC(=O)[C@H](CCC(=O)O)NC(=O)[C@H](CCCCN)NC(=O)[C@H](CC(=O)O)NC(=O)[C@H](CCSC)NC(=O)[C@H](CC(C)C)NC(=O)[C@H](CO)NC(=O)[C@H](CO)NC2=O)C(=O)N[C@@H](C(C)C)C(=O)N[C@@H](Cc2ccc(O)cc2)C(=O)N[C@@H](Cc2ccccc2)C(=O)N1)[C@@H](C)O)C(=O)N[C@@H](Cc1c[nH]c2ccccc12)C(=O)O [Example 3, [Thr^18, Phe^19]-ET-1] (H-CSCSSLMDKECVYFCHLTFIW-OH; disulfide 1-15, 3-11)	9.0	–	4 % 60 mM KCl	–	< 0.1	–	32	7.2
CC[C@H](C)[C@H](NC(=O)[C@H](CC(N)=O)NC(=O)[C@@H](NC(=O)[C@H](CC(C)C)NC(=O)[C@H](Cc1c[nH]cn1)NC(=O)[C@@H]1CSSC[C@H](N)C(=O)N[C@@H](CO)C(=O)N[C@H]2CSSC[C@H](NC(=O)[C@H](CCC(=O)O)NC(=O)[C@H](CCCCN)NC(=O)[C@H](CC(=O)O)NC(=O)[C@H](CCSC)NC(=O)[C@H](CC(C)C)NC(=O)[C@H](CO)NC(=O)[C@H](CO)NC2=O)C(=O)N[C@@H](C(C)C)C(=O)N[C@@H](Cc2ccc(O)cc2)C(=O)N[C@@H](Cc2ccccc2)C(=O)N1)[C@@H](C)O)C(=O)N[C@@H](Cc1c[nH]c2ccccc12)C(=O)O [Example 5, [Thr^18, Asn^19]-ET-1] (H-CSCSSLMDKECVYFCHLTNIW-OH; disulfide 1-15, 3-11)	1.6	–	9 % 60 mM KCl	–	< 0.1	–	–	–
